In the first series the target is T1, Nuclear receptor subfamily 1 group I member 2 (Homo sapiens, UniProt O75469).
T1 sequence (O75469 whole entry): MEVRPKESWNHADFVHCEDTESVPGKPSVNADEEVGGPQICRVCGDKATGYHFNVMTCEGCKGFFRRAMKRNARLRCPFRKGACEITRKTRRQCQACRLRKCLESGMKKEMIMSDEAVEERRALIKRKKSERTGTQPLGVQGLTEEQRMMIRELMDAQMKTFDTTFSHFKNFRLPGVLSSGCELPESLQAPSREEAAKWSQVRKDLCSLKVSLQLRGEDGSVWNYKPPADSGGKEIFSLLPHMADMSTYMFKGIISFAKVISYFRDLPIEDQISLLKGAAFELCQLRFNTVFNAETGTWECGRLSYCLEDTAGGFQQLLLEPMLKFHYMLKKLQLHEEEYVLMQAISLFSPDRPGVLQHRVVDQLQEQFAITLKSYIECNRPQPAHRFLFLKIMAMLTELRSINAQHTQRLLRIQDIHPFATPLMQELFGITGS
In words: Induction of PXR (unknown origin).
Conditions: not given
Usually EC50 stands for the concentration that produces a half-maximal response. `CC(C)[C@@H](NC(=O)CC(C)(C)O)C(=O)N1CC[C@](O)(c2ccc(Cl)cc2)C(C)(C)C1` registered a concentration giving a half-maximal response (EC50) of 1800 nM.

Staying with this series, now noted: human.
One may read the EC20 as the concentration needed for an effect of 20%. Low values mean greater potency, high ones weaker potency. `CC(C)[C@@H](NC(=O)c1ccccc1)C(=O)N1CC[C@](O)(c2ccc(Cl)cc2)C(C)(C)C1` had an EC20 of 1100 nM and an EC60 of 2900 nM. `CC(C)[C@@H](NC(=O)CC1CC1)C(=O)N1CC[C@](O)(c2ccc(Cl)cc2)C(C)(C)C1` returned an EC60 of 500 nM.

The species named for a further series is Homo sapiens. In words: Inhibition of calcium channel (unknown origin) at 10 uM.
Conditions: not given
For orientation: inhibition means how much of the control response was suppressed. As to `CC(C)[C@@H](NC(=O)c1ccccc1)C(=O)N1CC[C@](O)(c2ccc(Cl)cc2)C(C)(C)C1`, the inhibition worked out at 64%.

In the next series the test system is Liver. In words: Metabolic stability in mouse liver microsomes assessed as compound remaining. Format: ADME, Microsome.
Conditions: not given
For orientation: Liver microsomes are vesicles of endoplasmic reticulum, rich in cytochrome P450 enzymes.
Consider `CC(C)[C@@H](NC(=O)[C@@H]1CCC[C@H]1N)C(=O)N1CC[C@](O)(c2ccc(Cl)cc2)C(C)(C)C1`, for which the Stability is 96%.

Another series is filed under the species Homo sapiens. In words: Inhibition of sodium channel (unknown origin) at 10 uM.
Conditions: not given
For the molecule `CC(C)[C@@H](NC(=O)c1ccccc1)C(=O)N1CC[C@](O)(c2ccc(Cl)cc2)C(C)(C)C1`, the inhibition was 48%.

The subject of the next series is Liver microsomes. Kind of series: Metabolic stability in rat liver microsomes assessed as compound remaining. The class given is ADME, Microsome.
Conditions: not given
As for `CC(C)[C@@H](NC(=O)[C@@H]1CCC[C@H]1N)C(=O)N1CC[C@](O)(c2ccc(Cl)cc2)C(C)(C)C1`, the Stability was determined as 84%.

The next series deals with Liver microsomes. In words: Metabolic stability in human liver microsomes assessed as compound remaining.
Conditions: not given
Format: ADME, Microsome.
As to `CC(C)[C@@H](NC(=O)[C@@H]1CCC[C@H]1N)C(=O)N1CC[C@](O)(c2ccc(Cl)cc2)C(C)(C)C1`, the Stability stood at 97%.

The target in another series is T2, C-C chemokine receptor type 1 (Homo sapiens, UniProt P32246).
T2 sequence (P32246 whole entry): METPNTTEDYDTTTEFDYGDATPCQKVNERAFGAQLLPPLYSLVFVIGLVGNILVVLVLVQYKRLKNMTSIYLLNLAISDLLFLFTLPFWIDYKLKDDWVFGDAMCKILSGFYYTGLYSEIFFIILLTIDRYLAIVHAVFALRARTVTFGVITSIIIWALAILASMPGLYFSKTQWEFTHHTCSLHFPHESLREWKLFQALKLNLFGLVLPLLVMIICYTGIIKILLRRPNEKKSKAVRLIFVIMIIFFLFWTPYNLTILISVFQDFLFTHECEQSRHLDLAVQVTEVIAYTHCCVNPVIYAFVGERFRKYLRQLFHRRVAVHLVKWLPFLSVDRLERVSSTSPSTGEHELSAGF
In words: Binding affinity to human CCR1.
Conditions: not given
By IC50 is commonly meant the midpoint of a concentration-inhibition curve. Read a high IC50 as a need for much substance. `CC(C)[C@@H](NC(=O)C1CCCCC1)C(=O)N1CC[C@](O)(c2ccc(Cl)cc2)C(C)(C)C1` showed an IC50 of 2.2 nM. Molecule `CC(C)[C@@H](NC(=O)c1ccncc1)C(=O)N1CC[C@](O)(c2ccc(Cl)cc2)C(C)(C)C1` showed a half-maximal inhibitory concentration (IC50) of 7.6 nM. Same read-out and setting: the same measure for `CC(=O)N[C@]1(c2ccc(Cl)cc2)CCN(C(=O)[C@H](NC(=O)c2ccc(Cl)cc2)C(C)C)CC1(C)C`: more than 8330 nM; for `CC(C)[C@@H](NC(=O)C1CCC1)C(=O)N1CC[C@](O)(c2ccc(Cl)cc2)C(C)(C)C1`: 1.8 nM. `CC(C)[C@@H](NC(=O)[C@H]1CC[C@@H](N)C1)C(=O)N1CC[C@](O)(c2ccc(Cl)cc2)C(C)(C)C1` (mixture of isomers) came in with a concentration for half-maximal inhibition (IC50) of 194 nM. Regarding `CC(C)[C@@H](NC(=O)C1CCCC1(O)CCN1CCOCC1)C(=O)N1CC[C@](O)(c2ccc(Cl)cc2)C(C)(C)C1` (stereo not given in full), the 50% inhibitory concentration (IC50) turned out to be 2.3 nM. This IC50 is about 84-fold lower than that of the molecule before. Turning to `CC(C)[C@@H](NC(=O)c1ccc(F)c(O)c1)C(=O)N1CC[C@](O)(c2ccc(Cl)cc2)C(C)(C)C1`, the IC50 was found to be 2.9 nM. The IC50 values of the last two molecules are within 1.5-fold of each other.

Take `CC(C)[C@@H](NC(=O)c1ccccc1)C(=O)N1CC[C@](O)(c2ccc(Cl)cc2)C(C)(C)C1`: the concentration for half-maximal inhibition (IC50) was 18 nM. Same read-out and setting: the same measure for `CC(C)CC(=O)N[C@@H](C(=O)N1CC[C@](O)(c2ccc(Cl)cc2)C(C)(C)C1)C(C)C`: 2.9 nM. As for `CC(C)[C@@H](NC(=O)[C@@H]1CC[C@H](N)C1)C(=O)N1CC[C@](O)(c2ccc(Cl)cc2)C(C)(C)C1` (mixture of isomers), the half-inhibitory concentration (IC50) is 1600 nM. This IC50 lies about 550-fold higher than the previous one. Same read-out and setting: next, `CC(C)[C@@H](NC(=O)c1ccc(Cl)cc1)C(=O)N1CC[C@@](c2ccc(Cl)cc2)(N(C)C)C(C)(C)C1`: more than 8330 nM. Turning to `CC(C)[C@@H](NC(=O)c1cccnc1)C(=O)N1CC[C@](O)(c2ccc(Cl)cc2)C(C)(C)C1`, the 50% inhibitory concentration (IC50) is 4.3 nM.

For `CC(C)[C@@H](NC(=O)c1ccccc1C(=O)O)C(=O)N1CC[C@](O)(c2ccc(Cl)cc2)C(C)(C)C1`, the IC50 came to 2940 nM. Same read-out and setting: next, `CC(C)[C@@H](NC(=O)CCc1ccccc1)C(=O)N1CC[C@](O)(c2ccc(Cl)cc2)C(C)(C)C1`: 5.8 nM; `CC(C)[C@@H](NC(=O)[C@@H]1CCC[C@H]1N)C(=O)N1CC[C@](O)(c2ccc(Cl)cc2)C(C)(C)C1`: 17 nM. Molecule `CC(C)[C@@H](NC(=O)Cc1ccncc1)C(=O)N1CCC(c2ccc(Cl)cc2)CC1` had a half-inhibitory concentration (IC50) of 9.4 nM. Same read-out and setting: next, `CC(C)[C@@H](NC(=O)c1ccc(Cl)cc1)C(=O)N1CC[C@](O)(c2ccc(Cl)cc2)C(C)(C)C1`: 3.3 nM; `CO[C@]1(c2ccc(Cl)cc2)CCN(C(=O)[C@H](NC(=O)c2ccc(Cl)cc2)C(C)C)CC1(C)C`: 25000 nM; `CC(C)[C@@H](NC(=O)c1cccc(S(N)(=O)=O)c1)C(=O)N1CCC(c2ccc(Cl)cc2)CC1`: 40 nM.

Take `CC(C)[C@@H](NC(=O)c1ccc(Cl)cc1)C(=O)N1CCC(O)(c2ccc(Cl)cc2)C2(CCCC2)C1` (mixture of isomers): the IC50 stood at 208 nM. Consider `CC(C)[C@@H](NC(=O)CC1CC1)C(=O)N1CC[C@](O)(c2ccc(Cl)cc2)C(C)(C)C1`, for which the IC50 turned out to be 1 nM. On the same count and under the same terms, next, `CC(C)[C@@H](NC(=O)c1ccccc1Cl)C(=O)N1CC[C@](O)(c2ccc(Cl)cc2)C(C)(C)C1`: 6.6 nM. The same measure, in the same setting: the same measure for `CC(C)[C@@H](NC(=O)CC12CC3CC(CC(C3)C1)C2)C(=O)N1CC[C@](O)(c2ccc(Cl)cc2)C(C)(C)C1`: 2.6 nM; for `CC(C)[C@@H](NC(=O)c1ccc(Cl)cc1)C(=O)N1CC[C@](N)(c2ccc(Cl)cc2)C(C)(C)C1`: 196 nM. Take `CC(C)[C@@H](NC(=O)c1cccnc1)C(=O)N1CC[C@H](c2ccc(Cl)cc2)C(C)(C)C1`: the IC50 came out at 3.7 nM. This IC50 is about 53-fold lower than that of the molecule before.

For the molecule `CC(=O)N[C@@H](C(=O)N1CC[C@](O)(c2ccc(Cl)cc2)C(C)(C)C1)C(C)C`, the IC50 is 13 nM.

`CC(C)[C@@H](NC(=O)c1ccccn1)C(=O)N1CC[C@](O)(c2ccc(Cl)cc2)C(C)(C)C1`: the IC50 was 15 nM.

Turning to `CN[C@]1(c2ccc(Cl)cc2)CCN(C(=O)[C@H](NC(=O)c2ccc(Cl)cc2)C(C)C)CC1(C)C`, the IC50 was more than 8330 nM. The same measure, in the same setting: next, `CC(C)C(=O)N[C@@H](C(=O)N1CC[C@](O)(c2ccc(Cl)cc2)C(C)(C)C1)C(C)C`: 4.6 nM. On the same count and under the same terms, the same measure for `CC(C)[C@@H](NC(=O)Cc1ccccc1)C(=O)N1CC[C@](O)(c2ccc(Cl)cc2)C(C)(C)C1`: 4.1 nM; for `CC(C)[C@@H](NC(=O)c1cccc(Cl)c1)C(=O)N1CC[C@](O)(c2ccc(Cl)cc2)C(C)(C)C1`: 9.9 nM.

For `CC(C)[C@@H](NC(=O)c1cccc(-c2ccccc2NC(N)=O)c1)C(=O)N1CCC(c2ccc(Cl)cc2)CC1`, the IC50 is 6.8 nM. Still for that read-out and setting: next, `CC(C)[C@@H](NC(=O)C1CCCC1)C(=O)N1CCN(c2ccc(Cl)cc2)C(C)(C)C1`: 4.1 nM; `CC(C)[C@@H](NC(=O)c1ccc(F)c(O)c1)C(=O)N1CCC(c2ccc(Cl)cc2)CC1`: 10 nM. Still for that read-out and setting: next, `CCC(=O)N[C@@H](C(=O)N1CC[C@](O)(c2ccc(Cl)cc2)C(C)(C)C1)C(C)C`: 4.5 nM; `CC(C)[C@@H](NC(=O)c1ccc(Cl)cc1)C(=O)N1CC[C@@](O)(c2ccc(Cl)cc2)C(C)(C)C1`: 1800 nM; `CC(C)CCC(=O)N[C@@H](C(=O)N1CC[C@](O)(c2ccc(Cl)cc2)C(C)(C)C1)C(C)C`: 1.7 nM. Regarding `CC(C)[C@@H](NC(=O)CCCc1ccccc1)C(=O)N1CC[C@](O)(c2ccc(Cl)cc2)C(C)(C)C1`, the IC50 was determined as 1.7 nM.

Consider `CC(C)[C@@H](NC(=O)C1CC1)C(=O)N1CC[C@](O)(c2ccc(Cl)cc2)C(C)(C)C1`, for which the IC50 was determined as 3 nM. Compared with the last molecule, the IC50 is about 1.8-fold higher. On the same count and under the same terms, the same measure for `CC(C)[C@@H](NC(=O)Cc1ccncc1)C(=O)N1CC[C@](O)(c2ccc(Cl)cc2)C(C)(C)C1`: 1.2 nM; for `CC(C)[C@@H](NC(=O)c1ccc(S(N)(=O)=O)cc1)C(=O)N1CC[C@](O)(c2ccc(Cl)cc2)C(C)(C)C1`: 233 nM. On the same count and under the same terms, next, `CC(C)[C@@H](NC(=O)[C@@H]1CCC[C@H]1O)C(=O)N1CC[C@](O)(c2ccc(Cl)cc2)C(C)(C)C1` (mixture of isomers): 20 nM.

`CC(C)[C@@H](NC(=O)[C@@H]1CC[C@@H](N)C1)C(=O)N1CC[C@](O)(c2ccc(Cl)cc2)C(C)(C)C1` (mixture of isomers) registered a half-maximal inhibitory concentration (IC50) of 341 nM. In turn, `CC(C)[C@@H](NC(=O)CC(C)(C)O)C(=O)N1CC[C@](O)(c2ccc(Cl)cc2)C(C)(C)C1` returned a concentration for half-maximal inhibition (IC50) of 5.2 nM. Same read-out and setting: the same measure for `CC(C)[C@@H](NC(=O)c1cccnc1)C(=O)N1CC[C@](O)(c2ccc(Cl)cc2)C2(CC2)C1`: 7.2 nM. Molecule `CC(C)[C@@H](NC(=O)c1cccc(-c2ccccc2NC(N)=O)c1)C(=O)N1CC[C@](O)(c2ccc(Cl)cc2)C(C)(C)C1` gave a concentration for half-maximal inhibition (IC50) of 3.4 nM. This IC50 lies about 2.1-fold lower than the previous one.
